Where two headings read alike, the source gives them in different places.
Experiments:
SYK kinase = target: T1, SYK kinase (Homo sapiens, UniProt P43405); assay: SYK assay (OMNIA Kinase Assay, Invitrogen); format: biochemical; details: apparent Ki calculated from the IC50 using the Cheng-Prusoff equation; 1 mM ATP, 10 μM Peptide Substrate; read-out: SYK Activities: Ki
T1 construct: purchased Invitrogen, Carlsbad
How it was run: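 Continuous SOX-fluorescence (Omnia) readout of Tyr 7 peptide (10 μM) phosphorylation with 1 mM ATP and 0.2 mM DTT at 30° C, started by SYK addition. Fluorescence (λex 360/λem 485 nm) was read every 30 s for 30 min. IC50 from velocity vs concentration; apparent Ki via Cheng-Prusoff.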

MYLK = MYLK (Homo sapiens, UniProt Q15746); assay: MYLK assay (LanthaScreen Eu Kinase Binding Assay)
Procedure: In the assay LanthaScreen™ Eu Kinase Binding Assay by Invitrogen Corporation (Carlsbad) the effect of invention of a compound on the phosphorylation is determined by measurement of fluorescence intensity emission ratio based on the binding and displacement of a proprietary, Alexa Fluor® 647-labeled, ATP-competitive kinase inhibitor scaffold (kinase tracer) to the kinase of interest as described above.
To the wells of an 384 well small volume plate (Greiner, Frickenhausen) are added (i) the compound under test in 5% DMSO/distilled water (5 μl), (ii) 5 μl of the kinase antibody mixture resulting in a final concentration 5 nM MYLK, 2 nM EU-Anti-GST antibody in 1× kinase buffer A. The reaction was started with addition of (iii) 5 μl resulting in a final concentration of 30 nM tracer 236. The assay plate was incubated at RT for 1 h and fluorescence intensitiy readings were collected using a TECAN M1000 at two wavelengthes of λex 340/λem 615 nm and λex 340/λem 665 nm with a delay time of 100 μs and an integration time of 200 μs after 60 minutes. The emission ratio was calculated by division of the acceptor/tracer emission ([…]) by the antibody/donor emission ([…]). The inhibitor concentration was plotted versus the emission ratio to determine the IC50 using XLFit 5.0 (IDBS, Guildford) to fit to a sigmoidal dose response curve with a variable slope.

LRRK2 = LRRK2 (Homo sapiens, UniProt Q5S007); assay: LRRK2 assay (LanthaScreen Eu Kinase Binding Assay)
How it was run: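 Kinase binding was detected by europium anti-tag antibody FRET with a competing tracer, so inhibitor binding lowers the FRET signal. IC50 came from a variable-slope sigmoidal fit of emission ratio against inhibitor concentration.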

[1] = 5 nM MYLK, 30 nM tracer 236, RT 1 h, read-out: MYLK Activites: IC50
[2] = LRRK2 Activites: IC50, 5 nM LRRK2, 10 nM tracer 236, RT 1 h
[3] = 5 nM LRRK2, 10 nM tracer 236, RT 1 h, read-out: LRRK2 Activites: IC50

Chain of LRRK2 (Q5S007 970-2527 limits assumed): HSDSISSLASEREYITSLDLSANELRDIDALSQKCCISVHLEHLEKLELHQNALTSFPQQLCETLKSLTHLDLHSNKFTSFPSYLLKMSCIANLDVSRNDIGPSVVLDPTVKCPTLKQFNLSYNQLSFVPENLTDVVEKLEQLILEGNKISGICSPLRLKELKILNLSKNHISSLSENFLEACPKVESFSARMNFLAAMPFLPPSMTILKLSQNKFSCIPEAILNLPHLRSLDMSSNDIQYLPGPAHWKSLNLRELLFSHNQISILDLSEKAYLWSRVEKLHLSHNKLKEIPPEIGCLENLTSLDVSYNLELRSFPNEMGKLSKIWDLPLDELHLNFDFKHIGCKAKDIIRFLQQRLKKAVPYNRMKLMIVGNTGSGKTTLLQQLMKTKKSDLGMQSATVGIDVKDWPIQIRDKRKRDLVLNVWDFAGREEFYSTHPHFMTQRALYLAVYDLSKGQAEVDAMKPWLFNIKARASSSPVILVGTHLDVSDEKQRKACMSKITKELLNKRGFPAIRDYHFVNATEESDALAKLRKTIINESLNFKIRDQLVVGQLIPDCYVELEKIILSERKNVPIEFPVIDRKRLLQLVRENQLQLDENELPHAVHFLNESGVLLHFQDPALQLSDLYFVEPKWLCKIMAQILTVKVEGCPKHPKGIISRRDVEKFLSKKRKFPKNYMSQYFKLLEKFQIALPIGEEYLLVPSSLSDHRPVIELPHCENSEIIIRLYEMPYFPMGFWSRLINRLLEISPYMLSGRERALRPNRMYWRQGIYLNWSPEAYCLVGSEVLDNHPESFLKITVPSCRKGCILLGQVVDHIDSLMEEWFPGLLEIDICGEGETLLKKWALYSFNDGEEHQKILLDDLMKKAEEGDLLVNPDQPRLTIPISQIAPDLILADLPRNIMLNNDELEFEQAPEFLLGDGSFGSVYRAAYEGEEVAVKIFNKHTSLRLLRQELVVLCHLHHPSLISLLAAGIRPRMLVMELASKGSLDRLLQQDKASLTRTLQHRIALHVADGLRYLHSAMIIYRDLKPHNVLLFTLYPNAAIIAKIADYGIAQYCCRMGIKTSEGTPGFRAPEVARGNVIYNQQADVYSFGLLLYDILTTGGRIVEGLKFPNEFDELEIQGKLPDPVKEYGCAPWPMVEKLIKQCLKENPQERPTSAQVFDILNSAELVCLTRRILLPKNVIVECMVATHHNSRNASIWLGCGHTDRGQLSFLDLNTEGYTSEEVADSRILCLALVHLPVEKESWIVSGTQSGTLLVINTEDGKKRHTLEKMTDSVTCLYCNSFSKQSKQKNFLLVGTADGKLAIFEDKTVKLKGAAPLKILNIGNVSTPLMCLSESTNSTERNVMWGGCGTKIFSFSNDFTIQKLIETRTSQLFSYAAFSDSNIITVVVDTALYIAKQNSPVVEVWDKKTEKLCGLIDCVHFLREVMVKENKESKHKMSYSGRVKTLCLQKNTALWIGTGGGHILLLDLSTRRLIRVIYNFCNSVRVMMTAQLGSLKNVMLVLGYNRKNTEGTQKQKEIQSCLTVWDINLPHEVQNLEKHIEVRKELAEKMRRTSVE
Chain of MYLK (Q15746 whole entry): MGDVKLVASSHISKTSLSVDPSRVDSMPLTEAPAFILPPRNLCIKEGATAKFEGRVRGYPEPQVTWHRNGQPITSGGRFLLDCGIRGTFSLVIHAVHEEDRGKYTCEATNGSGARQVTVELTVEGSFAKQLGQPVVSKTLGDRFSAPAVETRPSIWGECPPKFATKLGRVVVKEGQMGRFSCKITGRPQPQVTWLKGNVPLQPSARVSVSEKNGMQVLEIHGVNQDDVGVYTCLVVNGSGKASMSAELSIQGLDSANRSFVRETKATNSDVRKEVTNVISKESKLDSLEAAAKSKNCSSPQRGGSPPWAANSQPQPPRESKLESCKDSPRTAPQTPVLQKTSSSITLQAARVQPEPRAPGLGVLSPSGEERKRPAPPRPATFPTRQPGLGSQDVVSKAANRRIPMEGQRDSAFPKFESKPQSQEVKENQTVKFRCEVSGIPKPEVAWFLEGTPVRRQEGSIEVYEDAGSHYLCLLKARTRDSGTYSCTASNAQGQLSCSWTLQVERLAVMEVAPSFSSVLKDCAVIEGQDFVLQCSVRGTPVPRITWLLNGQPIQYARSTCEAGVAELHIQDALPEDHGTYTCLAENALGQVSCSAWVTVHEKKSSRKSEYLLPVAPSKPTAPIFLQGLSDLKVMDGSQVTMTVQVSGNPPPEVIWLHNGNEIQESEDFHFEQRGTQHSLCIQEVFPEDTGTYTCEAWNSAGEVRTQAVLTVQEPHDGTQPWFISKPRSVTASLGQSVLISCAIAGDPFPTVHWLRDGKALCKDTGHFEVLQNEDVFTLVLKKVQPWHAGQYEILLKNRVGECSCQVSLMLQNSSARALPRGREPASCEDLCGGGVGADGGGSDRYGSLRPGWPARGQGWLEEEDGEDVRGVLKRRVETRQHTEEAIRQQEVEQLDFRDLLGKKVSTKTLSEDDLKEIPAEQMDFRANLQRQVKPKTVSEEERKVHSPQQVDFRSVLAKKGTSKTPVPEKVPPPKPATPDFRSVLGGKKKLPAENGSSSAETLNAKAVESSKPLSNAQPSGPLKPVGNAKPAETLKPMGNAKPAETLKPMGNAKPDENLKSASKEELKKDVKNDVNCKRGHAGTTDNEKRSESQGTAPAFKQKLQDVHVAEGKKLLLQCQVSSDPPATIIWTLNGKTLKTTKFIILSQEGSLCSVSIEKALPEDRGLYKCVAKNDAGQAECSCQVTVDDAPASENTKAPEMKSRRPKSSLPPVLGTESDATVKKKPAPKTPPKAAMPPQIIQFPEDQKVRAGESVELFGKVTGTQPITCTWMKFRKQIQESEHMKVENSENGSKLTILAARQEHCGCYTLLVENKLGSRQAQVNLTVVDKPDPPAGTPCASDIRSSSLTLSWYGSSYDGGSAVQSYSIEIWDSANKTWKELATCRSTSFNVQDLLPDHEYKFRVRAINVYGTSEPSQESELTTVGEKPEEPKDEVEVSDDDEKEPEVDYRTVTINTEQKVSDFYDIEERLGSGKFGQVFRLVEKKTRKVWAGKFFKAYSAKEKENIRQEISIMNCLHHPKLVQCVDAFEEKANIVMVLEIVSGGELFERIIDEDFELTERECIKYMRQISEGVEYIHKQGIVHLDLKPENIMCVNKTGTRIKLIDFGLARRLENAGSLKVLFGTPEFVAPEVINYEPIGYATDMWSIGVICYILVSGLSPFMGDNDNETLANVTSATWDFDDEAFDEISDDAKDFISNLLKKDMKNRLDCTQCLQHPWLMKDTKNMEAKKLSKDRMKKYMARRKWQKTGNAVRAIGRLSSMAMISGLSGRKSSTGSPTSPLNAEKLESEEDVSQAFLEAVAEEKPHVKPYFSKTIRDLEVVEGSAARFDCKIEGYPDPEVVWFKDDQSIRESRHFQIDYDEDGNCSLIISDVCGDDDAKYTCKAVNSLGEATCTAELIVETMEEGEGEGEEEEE

| Compound | Ki (SYK kinase) [nM] | IC50 (MYLK; [1]) [nM] | IC50 (MYLK) [nM] | IC50 (LRRK2; [2]) [nM] | IC50 (LRRK2; [3]) [nM] |
| --- | --- | --- | --- | --- | --- |
| COc1ccc2c(c1)nc(Nc1ccc3[nH]cnc3c1)c1n[nH]cc12 [Example #263, (1H-Benzoimidazol-5-yl)-(7-methoxy-2H-pyrazolo[3,4-c]quinolin-4-yl)-amine] | < 10 | < 5000 |  |  |  |
| COc1ccc2nc(Nc3ccc(C(=O)N4CCC(=O)CC4)cc3)c3n[nH]cc3c2c1 [Example #305, 1-(4-((8-methoxy-2H-pyrazolo[3,4-c]quinolin-4-yl)amino)benzoyl)piperidin-4-one] |  |  | < 5000 | 10 to 100 |  |
| O=C1COc2ccc(Nc3nc4ccc(Br)cc4c4c[nH]nc34)cc2N1 [Example #116, 6-(8-Bromo-2H-pyrazolo[3,4-c]quinolin-4-ylamino)-4H-benzo[1,4]oxazin-3-one] |  | < 5000 |  |  |  |
| CN1CCN(c2ccc(Nc3nc4cc(F)ccc4c4cn[nH]c34)cc2)CC1 [Example #337, 7-fluoro-N-(4-(4-methylpiperazin-1-yl)phenyl)-3H-pyrazolo[3,4-c]quinolin-4-amine] | 10 to 100 | < 5000 |  |  |  |
| COc1ccc2nc(Nc3cccc(S(=O)(=O)N4CCOCC4)c3)c3n[nH]cc3c2c1 [Example #349, 8-methoxy-N-(3-(morpholinosulfonyl)phenyl)-2H-pyrazolo[3,4-c]quinolin-4-amine] | 100 to 1000 | < 5000 |  |  |  |
| COc1ccc2nc(Nc3ccc(N4CCS(=O)(=O)CC4)cc3)c3n[nH]cc3c2c1 [Example #292, 4-(4-((8-methoxy-2H-pyrazolo[3,4-c]quinolin-4-yl)amino)phenyl)thiomorpholine 1,1-dioxide] | < 10 | < 5000 |  |  |  |
| COc1cc(Nc2nc3ccc(OC)cc3c3c[nH]nc23)cc(OC)c1 [Example #341, N-(3,5-dimethoxyphenyl)-8-methoxy-2H-pyrazolo[3,4-c]quinolin-4-amine] | 100 to 1000 | < 5000 |  |  |  |
| COc1ccc2nc(Nc3ccc(F)cc3F)c3n[nH]cc3c2c1 [Example #360, N-(2,4-difluorophenyl)-8-methoxy-2H-pyrazolo[3,4-c]quinolin-4-amine] |  | < 5000 |  |  |  |
| CN1CCN(c2ccc(Nc3nc4ccc(F)cc4c4cn[nH]c34)cc2)CC1 [Example #326, 8-fluoro-N-(4-(4-methylpiperazin-1-yl)phenyl)-3H-pyrazolo[3,4-c]quinolin-4-amine] | 10 to 100 | < 5000 |  |  |  |
| COc1ccc2nc(Nc3ccc4c(c3)NC(=O)CO4)c3[nH]ncc3c2c1 [Example #291, 6-((8-methoxy-2H-pyrazolo[3,4-c]quinolin-4-yl)amino)-2H-benzo[b][1,4]oxazin-3(4H)-one] | < 10 | < 5000 |  |  |  |
| COc1ccc2nc(Nc3nccc(N)n3)c3n[nH]cc3c2c1 [Example #139, N2-(8-methoxy-2H-pyrazolo[3,4-c]quinolin-4-yl)pyrimidine-2,4-diamine] | 100 to 1000 | < 5000 |  |  |  |
| Cc1cc(Nc2nc3ccc(Br)cc3c3c[nH]nc23)cc2cn[nH]c12 [Example #41, (8-Bromo-2H-pyrazolo[3,4-c]quinolin-4-yl)-(7-methyl-1H-indazol-5-yl)-amine] | 10 to 100 | < 5000 |  |  |  |
| COc1ccc2nc(Nc3ccc(C(=O)N4CCC(N5CCN(C)CC5)CC4)cc3OC)c3n[nH]cc3c2c1 [Example #295, (3-methoxy-4-((8-methoxy-2H-pyrazolo[3,4-c]quinolin-4-yl)amino)phenyl)(4-(4-methylpiperazin-1-yl)piperidin-1-yl)methanone] |  | < 5000 |  |  | 10 to 100 |
| COc1ccc2nc(Nc3cccc(S(=O)(=O)C(F)(F)F)c3)c3n[nH]cc3c2c1 [Example #350, 8-methoxy-N-(3-((trifluoromethyl)sulfonyl)phenyl)-2H-pyrazolo[3,4-c]quinolin-4-amine] | 100 to 1000 | < 5000 |  |  |  |
| COc1ccc2nc(Nc3ccc(C(=O)N4CCC(N(C)C)C4)cc3)c3n[nH]cc3c2c1 (centres unmarked) [Example #307, (3-(dimethylamino)pyrrolidin-1-yl)(4-((8-methoxy-2H-pyrazolo[3,4-c]quinolin-4-yl)amino)phenyl)methanone] |  | < 5000 |  |  | 100 to 1000 |
| O=C(c1ccc(Nc2nc3ccc(F)cc3c3cn[nH]c23)cc1)N1CCCC1 [Example #322, (4-((8-fluoro-3H-pyrazolo[3,4-c]quinolin-4-yl)amino)phenyl) (pyrrolidin-1-yl)methanone] |  | < 5000 |  |  |  |
| COc1ccc2nc(Nc3cccc(C(=O)O)c3)c3n[nH]cc3c2c1 [Example #287, 3-((8-methoxy-2H-pyrazolo[3,4-c]quinolin-4-yl)amino)benzoic acid] | 100 to 1000 | < 5000 |  |  |  |
| COc1cccc2nc(Nc3ccc4c(c3)CN(C)C4)c3[nH]ncc3c12 [Example #352, 9-methoxy-N-(2-methylisoindolin-5-yl)-3H-pyrazolo[3,4-c]quinolin-4-amine] |  | < 5000 |  |  | 10 to 100 |
| COc1cccc2c1nc(Nc1ccc(CN3CCN(C)CC3)cc1)c1n[nH]cc12 [Example #278, (6-Methoxy-2H-pyrazolo[3,4-c]quinolin-4-yl)-[4-(4-methyl-piperazin-1-ylmethyl)-phenyl]-amine] | 100 to 1000 | < 5000 |  |  |  |
| COc1ccc2nc(Nc3ccc(C(=O)N4CCC5(CC4)OCCO5)cc3)c3n[nH]cc3c2c1 [Example #306, (4-((8-methoxy-2H-pyrazolo[3,4-c]quinolin-4-yl)amino)phenyl)(1,4-dioxa-8-azaspiro[4.5]decan-8-yl)methanone] |  |  | < 5000 | 10 to 100 |  |
| COc1cccc2c1nc(Nc1ccc(CN(C)C)cc1)c1n[nH]cc12 [Example #233, (4-Dimethylaminomethyl-phenyl)-(6-methoxy-2H-pyrazolo[3,4-c]quinolin-4-yl)-amine] | < 10 | < 5000 |  |  |  |
| COc1ccc(Nc2nc3ccc(I)cc3c3cn[nH]c23)cc1OC [Example #354, N-(3,4-dimethoxyphenyl)-8-iodo-3H-pyrazolo[3,4-c]quinolin-4-amine] | 100 to 1000 | < 5000 |  |  |  |
| COc1ccc2nc(Nc3ccc4ncc(=O)[nH]c4c3)c3n[nH]cc3c2c1 [Example #194, 7-(8-Methoxy-2H-pyrazolo[3,4-c]quinolin-4-ylamino)-1H-quinoxalin-2-one] | 100 to 1000 | < 5000 |  |  |  |
| COc1ccc(Nc2nc3ccc(F)cc3c3cn[nH]c23)cc1OC [Example #327, N-(3,4-dimethoxyphenyl)-8-fluoro-3H-pyrazolo[3,4-c]quinolin-4-amine] | 100 to 1000 | < 5000 |  |  |  |
| COc1ccc2nc(Nc3ccc(C(N)=O)cc3)c3n[nH]cc3c2c1 [Example #58, 4-(8-Methoxy-2H-pyrazolo[3,4-c]quinolin-4-ylamino)-benzamide] | 10 to 100 | < 5000 |  |  |  |
| COc1cccc2c1nc(Nc1ccccc1)c1n[nH]cc12 [Example #261, (6-Methoxy-2H-pyrazolo[3,4-c]quinolin-4-yl)-phenyl-amine] | 10 to 100 | < 5000 |  |  |  |
| Brc1ccc2nc(Nc3ccc(N4CCOCC4)cc3)c3n[nH]cc3c2c1 [Example #115, (8-Bromo-2H-pyrazolo[3,4-c]quinolin-4-yl)-(4-morpholin-4-yl-phenyl)-amine] | 10 to 100 |  |  |  | 100 to 1000 |
| Brc1ccc2nc(Nc3cc[nH]n3)c3n[nH]cc3c2c1 [Example #119, (8-Bromo-2H-pyrazolo[3,4-c]quinolin-4-yl)-(1H-pyrazol-3-yl)-amine] | 100 to 1000 |  |  |  | 100 to 1000 |
